Holding throughout (test): NCI anticancer screen, dose series, 48 h
Assay [1] relates to EKVX.
The test system of assay [2] is ACHN.
In assay [3] the test system is DLD-1.
The test system of assay [4] is HCC 2998.
Assay [5] deals with DMS-273.
In assay [6] the test system is SF-295.
Assay [7] relates to Malme-3M.
Assay [8] deals with XF498.
Assay [9] has as its system M14.
For assay [10], the system named is SW-620.
Assay [11] deals with TK-10.
In assay [12] the test system is NCI/ADR-RES.
The test system of assay [13] is T47D.
Assay [14] relates to SF-539.
Assay [15] concerns A549.
Assay [16] has as its system MCF7.
Assay [17] concerns MDA-MB-231.
The test system of assay [18] is A498.
Assay [19] concerns SNB-78.
In assay [20] the test system is NCI-H522.

13 molecules from ChEMBL document CHEMBL1201862, “PubChem BioAssay data set” (2004) can be followed below.

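Grown in 96-well plates, cells were treated for 48 hours with each compound at five concentrations. Insufficient inhibition: endpoint recorded as highest concentration tested. Here, GI50 denotes the concentration required for 50% inhibition of growth.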 Calls of active or inactive are those of the source. No stated cut-off is given here; in the data, active = GI50 up to about 1.1 µM and inactive = higher.

With `COc1cc2c(cc1OC)C(C1(O)CCCCC1)NCC2` (stereo not drawn), the GI50 in assay [1], in [2], in assay [3], in assay [4], in assay [5] and in assay [6] was > 100 µM (inactive) throughout. Also, the GI50 in [7], in assay [8], in assay [9], in assay [10] and in assay [11] was > 100 µM (inactive) throughout.

Regarding `CC(C)(C)OC(=O)NCC(=O)NC1c2ccsc2/C(=N/O)[C@H]1O` (stereo partly drawn), the GI50 is > 100 µM (inactive) in [12]; > 100 µM (inactive) in [1]; > 100 µM (inactive) in assay [13]; > 100 µM (inactive) in assay [14]; 93.3 µM (inactive) in [4]; > 100 µM (inactive) in assay [6]. In addition, the GI50 in [7], in assay [15], in assay [16], in assay [9], in assay [17] and in [10] was > 100 µM (inactive) each time. In addition, the GI50 in [11] and in assay [18] was > 100 µM (inactive) each time.

With `COCCOCOc1ccc(OCc2ccccc2)cc1`, the GI50 in assay [12] is > 82.8 µM (inactive); in assay [1], > 55.7 µM (inactive); in assay [14], > 100 µM (inactive); in [3], > 100 µM (inactive); in assay [4] it was > 82.6 µM (inactive); in [5] it was > 94.6 µM (inactive). In addition, the GI50 in assay [6] is > 100 µM (inactive); in [7], > 100 µM (inactive); in [8], > 100 µM (inactive); in assay [15], > 100 µM (inactive); in assay [19], > 100 µM (inactive); in [16] it was > 35.9 µM (inactive). Also, the GI50 was > 100 µM (inactive) in assay [10] and > 58.5 µM (inactive) in [18].

For the molecule `O=C1c2ccccc2OCC12OC21C=CC(Cl)=CC1` (stereo not drawn), the GI50 in [12] was 22.5 µM (inactive); in assay [1] it was 18.7 µM (inactive); in assay [14], 52.4 µM (inactive); in assay [2] it was 38.5 µM (inactive); in assay [4] it was 19.1 µM (inactive); in [7], 18.5 µM (inactive). Besides, the GI50 in assay [15] was 18.6 µM (inactive); in [16], 33.4 µM (inactive); in [9], 33.5 µM (inactive); in assay [17] it was 22 µM (inactive); in [10], 29.4 µM (inactive); in [11] it was 33.2 µM (inactive). Moreover, the GI50 in [18] is 20.7 µM (inactive).

`CSc1nc(N)c2c(-c3ccccc3)c3c(nc2n1)CCCC3`: the GI50 in [12] is 33 µM (inactive); in [1] it was > 100 µM (inactive); in assay [13] it was > 100 µM (inactive); in [14], 13.4 µM (inactive); in assay [2] it was > 100 µM (inactive); in assay [6], > 100 µM (inactive). Moreover, the GI50 was 82 µM (inactive) in assay [7]; > 100 µM (inactive) in [15]; > 100 µM (inactive) in assay [16]; > 100 µM (inactive) in assay [9]; > 100 µM (inactive) in assay [17]; > 100 µM (inactive) in assay [10]. Also, the GI50 in assay [11] is > 100 µM (inactive).

Consider `COc1cc2c(cc1Oc1ccc(OC)c3c1CC1c4c(cc(OC)c(OC)c4-3)CCN1C)CC1c3c(cc(OC)c(OC)c3-2)CCN1C` (stereo not drawn), for which the GI50 is 4.51 µM (inactive) in assay [12]; 3.18 µM (inactive) in assay [1]; 1.72 µM (inactive) in assay [14]; 2.23 µM (inactive) in assay [3]; 2.41 µM (inactive) in assay [4]; 1.02 µM (active) in assay [5]. Besides, the GI50 in assay [20] was 2.09 µM (inactive); in assay [6], 2.54 µM (inactive); in assay [7] it was 1.85 µM (inactive); in [8], 1.98 µM (inactive); in [15], 11.9 µM (inactive); in assay [19], 7.01 µM (inactive). Also, the GI50 in [16] is 3.08 µM (inactive); in [10], 1.95 µM (inactive); in [18], 2.77 µM (inactive).

`CC(=C/c1ccccc1)/C=C1/NC(=S)N(/C=C2\C(=O)Oc3ccccc3C2=O)C1=O`: the GI50 in assay [12] was 42.2 µM (inactive); in assay [1] it was 27.9 µM (inactive); in [13] it was 1.76 µM (inactive); in assay [14], 96.6 µM (inactive); in assay [2] it was 46 µM (inactive); in assay [4], 58.1 µM (inactive). The GI50 in [20] was 22.7 µM (inactive); in assay [6], > 100 µM (inactive); in [15], 42.2 µM (inactive); in assay [16] it was 39.7 µM (inactive); in assay [9], 54 µM (inactive); in assay [17], 45.9 µM (inactive). Also, the GI50 in assay [11] is 40.7 µM (inactive); in assay [18], 56.4 µM (inactive).

In the case of `CC(=O)ON1C(=O)c2cccc3cccc(c23)C1=O`, the GI50 was 34.3 µM (inactive) in assay [12]; 28.1 µM (inactive) in [1]; 20.8 µM (inactive) in assay [13]; 16.4 µM (inactive) in assay [14]; 28.4 µM (inactive) in assay [2]; 31.6 µM (inactive) in [4]. Further, the GI50 in assay [20] is 14.6 µM (inactive); in assay [6], 20.9 µM (inactive); in assay [7] it was 20 µM (inactive); in [15], 23.2 µM (inactive); in assay [16] it was 16 µM (inactive); in assay [9], 21.6 µM (inactive). The GI50 is 29 µM (inactive) in assay [17], 5.62 µM (inactive) in assay [10], 31.7 µM (inactive) in [11] and 25.8 µM (inactive) in assay [18].

For `CN(C)c1nc(N(C)C)nc(N(C)CN(C)c2ccccc2)n1`, the GI50 in assay [14] is > 100 µM (inactive); in assay [2], > 100 µM (inactive); in assay [4] it was 64.4 µM (inactive); in assay [20], > 100 µM (inactive); in [6] it was > 100 µM (inactive); in assay [7], > 100 µM (inactive). For the same molecule, the GI50 in assay [8], in assay [15], in assay [19] and in [11] was > 100 µM (inactive) each time.

On to `Cc1cc(NS(=O)(=O)c2ccc(NC(=O)c3cccc4c(Nc5ccc(S(N)(=O)=O)cc5)c5ccccc5nc34)cc2)no1`, for which the GI50 in assay [1] is 96.8 µM (inactive); in [14] it was 73.6 µM (inactive); in assay [2], > 100 µM (inactive); in [3] it was > 100 µM (inactive); in [4], > 100 µM (inactive); in [20] it was 41.6 µM (inactive). Also, the GI50 in assay [7] was > 100 µM (inactive); in assay [8], 59.7 µM (inactive); in assay [19], > 100 µM (inactive); in assay [9], > 100 µM (inactive); in assay [11], > 100 µM (inactive); in assay [18] it was > 100 µM (inactive).

Consider `Cc1ccccc1-c1nc2c(C(=O)NCCN(C)C)cccc2[nH]1`, for which the GI50 was 34.3 µM (inactive) in [12]; > 100 µM (inactive) in assay [1]; 41.4 µM (inactive) in [14]; 37.7 µM (inactive) in assay [3]; 40.3 µM (inactive) in [4]; 31.5 µM (inactive) in [5]. The GI50 in [20] is 59.3 µM (inactive); in assay [6] it was 34.1 µM (inactive); in assay [7] it was 30.5 µM (inactive); in [8] it was 39.7 µM (inactive); in [15] it was 39.4 µM (inactive); in [19] it was 51.5 µM (inactive). For the same molecule, the GI50 is 41 µM (inactive) in [16], 26.5 µM (inactive) in assay [10] and 42.3 µM (inactive) in assay [18].

For the molecule `O=C1OC(c2ccc(O)c(F)c2)(c2ccc(O)c(F)c2)c2cccc3cccc1c23`, the GI50 in [12] is 24.7 µM (inactive); in assay [1], 5.12 µM (inactive); in assay [14], > 25 µM (inactive); in [2] it was > 25 µM (inactive); in assay [6], 23.2 µM (inactive); in [7], > 25 µM (inactive). The GI50 in assay [15] is > 25 µM (inactive); in assay [16], 1.79 µM (inactive); in assay [9], > 25 µM (inactive); in [17] it was > 25 µM (inactive); in [10], > 25 µM (inactive); in assay [11], > 25 µM (inactive). The GI50 in assay [18] is > 25 µM (inactive).

Regarding `NC(=O)Oc1ccccc1` [CARBAMIC ACID PHENYL ESTER], the GI50 in assay [12], in assay [13], in assay [2], in assay [4], in assay [20] and in assay [6] was > 100 µM (inactive) throughout. Moreover, the GI50 in [15], in assay [16], in assay [9], in [17], in assay [10] and in [11] was > 100 µM (inactive) in each case. Besides, the GI50 in assay [18] is > 100 µM (inactive).
